#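 Grown in 96-well plates, cells were treated for 48 hours with each compound at five concentrations. Insufficient inhibition: endpoint recorded as highest concentration tested. GI50 marks 50% less growth. The concentration for full growth arrest is given as TGI.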
# What was measured:
# Experiment in all cases: inhibition of tumour cell growth, NCI panel, 48 h
# [1] = test system: LOX IMVI melanoma
# [2] = test system: SW-620 colon
# [3] = test system: SN12C renal
# [4] = test system: ACHN renal
# [5] = test system: HT29 colon
# [6] = test system: OVCAR-8 ovarian
# [7] = test system: UACC-62 melanoma
# [8] = test system: EKVX NSCLC
# [9] = test system: COLO 205 colon
# [10] = test system: K-562 leukemia
SMILES,GI50 [1],TGI [1],GI50 [2],TGI [2],GI50 [3],TGI [3],GI50 [4],TGI [4],GI50 [5],TGI [5],GI50 [6],TGI [6],GI50 [7],TGI [7],GI50 [8],TGI [8],GI50 [9],TGI [9],GI50 [10],TGI [10]
CCOC(=O)C1=C(N)Oc2c(sc3c(C)cccc23)C1c1ccc(F)cc1 (configuration not stated),0.596 µM,12.3 µM,0.453 µM,15.9 µM,1.11 µM,14.5 µM,0.692 µM,15.9 µM,0.938 µM,12.8 µM,0.581 µM,18.1 µM,0.399 µM,13.5 µM,0.88 µM,19.7 µM,0.633 µM,5.77 µM,0.375 µM,> 42.7 µM
CNC(C)[C@H]1CCC2C3CC=C4C(=O)[C@@H](NC(=O)C=C(C)C)CC[C@]4(C)C3CC[C@@]21C (some centres not stated),1.35 µM,2.98 µM,1.7 µM,4.03 µM,2.46 µM,10.5 µM,3.29 µM,12.6 µM,0.358 µM,1.59 µM,3.91 µM,20.2 µM,1.84 µM,3.54 µM,1.14 µM,11.2 µM,1.51 µM,2.99 µM,0.478 µM,2.19 µM
COc1ccc2c(c1)C(C)Cc1c(ncnc1-n1cnc3ccccc31)N2C (configuration not stated),0.602 µM,18.2 µM,0.379 µM,17.8 µM,0.958 µM,34 µM,0.635 µM,27.4 µM,0.336 µM,1.43 µM,0.959 µM,87.4 µM,0.735 µM,21.2 µM,0.632 µM,20 µM,0.33 µM,1.37 µM,0.384 µM,> 100 µM
COC(=O)[C@]12CC[C@@H](C)[C@H](C)[C@@H]1C1=CC[C@@H]3[C@@]4(C)C(C=O)=C[C@@](C)(COC(=O)c5ccco5)[C@@H]4[C@H](O)C[C@@]3(C)[C@]1(C)CC2,1.57 µM,2.94 µM,2.86 µM,8.32 µM,3.44 µM,83.2 µM,1.13 µM,3.78 µM,1.81 µM,4.14 µM,2.9 µM,13.4 µM,0.382 µM,2.22 µM,3.02 µM,13.8 µM,0.0493 µM,0.355 µM,2.96 µM,9.96 µM
c1ccc(NCCSc2nc3ccccc3s2)cc1,,> 100 µM,,> 100 µM,,> 100 µM,,> 100 µM,,> 100 µM,,> 100 µM,,> 100 µM,,> 100 µM,,41.8 µM,,> 100 µM
Cn1c(=S)c2[nH]c(SCCCc3ccccc3)nc2n(C)c1=O,,> 100 µM,,> 100 µM,,> 100 µM,,> 100 µM,,> 100 µM,,> 100 µM,,> 100 µM,,79.3 µM,,25.4 µM,,> 100 µM
COc1cc2c3c(n(CCCN(CCO)CCO)c(=O)c2cc1OC)-c1cc2c(cc1C3=O)OCO2,< 0.01 µM,0.158 µM,< 0.01 µM,1.71 µM,< 0.01 µM,0.285 µM,< 0.01 µM,0.0855 µM,< 0.01 µM,1.03 µM,0.221 µM,6.01 µM,< 0.01 µM,0.503 µM,0.887 µM,13.6 µM,0.218 µM,12.7 µM,< 0.01 µM,
CC1COS(=O)O1 (configuration not stated),,> 100 µM,,> 100 µM,,> 100 µM,,> 100 µM,,> 100 µM,,> 100 µM,,> 100 µM,,> 100 µM,,> 100 µM,,> 100 µM
COc1ccc(-c2nn(-c3cccc(Cl)c3)cc2-c2nc(N)[nH]c(=O)c2C#N)cc1,4.02 µM,20.1 µM,4.38 µM,34.2 µM,6.41 µM,> 100 µM,9.92 µM,> 100 µM,4.29 µM,20 µM,10.1 µM,60.3 µM,3.33 µM,15.4 µM,3.29 µM,35.4 µM,7.65 µM,20.9 µM,3.45 µM,> 100 µM
CS(=O)(=O)CS(=O)(=O)OCCCl,,497 µM,,1100 µM,,706 µM,,524 µM,,1320 µM,,1270 µM,,268 µM,,1080 µM,,831 µM,,3120 µM
O=C1C=CC(=CC=C2C=CN(CCCCCCCCCCC(=O)NCCCCCCCCCCCC(=O)O)C=C2)C=C1,,> 100 µM,,> 100 µM,,> 100 µM,,> 100 µM,,> 100 µM,,> 100 µM,,> 100 µM,,> 100 µM,,> 100 µM,,> 100 µM
COc1cc(/C=C/C(=O)C(C(=O)/C=C/c2ccc(OC(=O)CCNC34CC5CC(CC(C5)C3)C4)c(OC)c2)C(=O)CCNC23CC4CC(CC(C4)C2)C3)ccc1OC(=O)CCNC12CC3CC(CC(C3)C1)C2 (configuration not stated),1.98 µM,3.94 µM,2.42 µM,6.48 µM,2.85 µM,9.48 µM,4.03 µM,34.1 µM,1.69 µM,3.24 µM,1.62 µM,5.18 µM,3.37 µM,13.3 µM,2.95 µM,8.97 µM,4.27 µM,17.8 µM,1.99 µM,4.97 µM
CN1C(NNC(=O)c2cccnc2)=NS(=O)(=O)c2cc(Cl)ccc21,> 100 µM,> 100 µM,> 100 µM,> 100 µM,> 100 µM,> 100 µM,> 100 µM,> 100 µM,> 100 µM,> 100 µM,> 100 µM,> 100 µM,> 100 µM,> 100 µM,> 100 µM,> 100 µM,> 100 µM,> 100 µM,> 100 µM,> 100 µM
NC(=S)N/N=C1\CCCC\C1=C/c1ccccc1,,> 100 µM,,> 100 µM,,> 100 µM,,> 100 µM,,50.3 µM,,> 100 µM,,> 100 µM,,> 100 µM,,> 100 µM,,> 100 µM
C=C1C(=O)OC2C1CC(OC(C)=O)/C(C)=C/CCC1(C)OC21 (configuration not stated),,> 100 µM,,> 100 µM,,> 100 µM,,> 100 µM,,> 100 µM,,> 100 µM,,> 100 µM,,> 100 µM,,> 100 µM,,> 100 µM
NCCCn1c2c(c3ccccc3c1=O)C(=O)c1ccccc1-2,0.0649 µM,0.702 µM,0.0713 µM,5.83 µM,0.0791 µM,0.465 µM,< 0.0359 µM,,0.128 µM,15.4 µM,0.0658 µM,1.32 µM,0.247 µM,2.69 µM,0.539 µM,2.9 µM,0.105 µM,2.88 µM,0.0857 µM,10.4 µM

SMILES,GI50 [1],TGI [1],GI50 [2],TGI [2],GI50 [3],TGI [3],GI50 [4],TGI [4],GI50 [5],TGI [5],GI50 [6],TGI [6],GI50 [7],TGI [7],GI50 [8],TGI [8],GI50 [9],TGI [9],GI50 [10],TGI [10]
C[Si](C)(C)CN1C(=O)c2ccccc2C1(O)c1ccccc1 (configuration not stated),,> 100 µM,,> 100 µM,,> 100 µM,,> 100 µM,,> 100 µM,,> 100 µM,,> 100 µM,,> 100 µM,,> 100 µM,,> 100 µM
CCOC(=O)c1sc(NC(=O)COc2cccc(/C=C3\CCc4cc(OC)ccc4C3=O)c2)nc1C,3.87 µM,15.7 µM,3.79 µM,13.3 µM,3.89 µM,> 100 µM,6 µM,> 100 µM,3.71 µM,> 100 µM,4.59 µM,25.3 µM,5.43 µM,> 100 µM,74 µM,> 100 µM,8.49 µM,43.4 µM,1.94 µM,6.26 µM
Cc1ccc(C)c(N2C(=O)C(=O)C(c3nc4ccccc4o3)/C(=N\NC(=O)c3ccccc3O)C2=O)c1 (configuration not stated),,> 100 µM,,> 100 µM,,> 100 µM,,> 100 µM,,> 100 µM,,76.7 µM,,84.4 µM,,> 100 µM,,72.2 µM,,85.6 µM
Cc1ccc(NC(=O)C(=O)C2C(=O)NC(=O)NC2=O)cc1C,,> 100 µM,,> 100 µM,,> 100 µM,,> 100 µM,,> 100 µM,,> 100 µM,,> 100 µM,,> 100 µM,,> 100 µM,,> 100 µM
C1=NC(N(Cc2ccccc2)Cc2ccccc2)N(Cc2ccccc2)N1 (configuration not stated),,30.4 µM,,49.9 µM,,34.1 µM,,57 µM,,30.9 µM,,54.5 µM,,27.2 µM,,56.2 µM,,30.8 µM,,43.9 µM
Oc1ccc(N=Nc2nccs2)c(O)c1,3.28 µM,18.7 µM,5 µM,22.3 µM,9.42 µM,38.7 µM,2.96 µM,33.8 µM,3.61 µM,23.1 µM,3.75 µM,23 µM,4.6 µM,17.6 µM,2.1 µM,15.3 µM,3.21 µM,12 µM,3.58 µM,34.3 µM
NCCCOc1cc(Cl)ccc1NC(=O)c1cc2ccccc2cc1OCCCN,1.2 µM,2.59 µM,1.58 µM,3.06 µM,1.58 µM,3.23 µM,1.48 µM,2.88 µM,1.62 µM,4.16 µM,1.84 µM,3.59 µM,1.78 µM,3.3 µM,1.69 µM,3.58 µM,1.31 µM,2.79 µM,1.72 µM,4.12 µM
CC(Cl)CN1c2ccccc2Sc2ccc(Cl)cc21 (configuration not stated),,> 10 µM,,> 10 µM,,> 10 µM,,> 10 µM,,> 10 µM,,> 10 µM,,> 10 µM,,> 10 µM,,> 10 µM,,> 10 µM
COc1cc(OC)c2sc(-c3ccc(-n4cncc4-c4cc(OC)c(OC)c(OC)c4)cc3)nc2c1,5.4 µM,> 100 µM,5.96 µM,> 100 µM,> 100 µM,> 100 µM,6.67 µM,> 100 µM,4.88 µM,> 100 µM,> 100 µM,> 100 µM,4.14 µM,> 100 µM,5.09 µM,> 100 µM,4.51 µM,> 100 µM,3.83 µM,> 100 µM
NC(CCc1ncc(C(=O)O)s1)C(=O)O (configuration not stated),,> 100 µM,,> 100 µM,,> 100 µM,,> 100 µM,,> 100 µM,,> 100 µM,,> 100 µM,,> 100 µM,,> 100 µM,,> 100 µM
Clc1nc(Cl)c2ncn(Cc3ccccc3Cn3cnc4c(Cl)nc(Cl)nc43)c2n1,1.16 µM,2.65 µM,1.67 µM,3.33 µM,2.31 µM,7.24 µM,1.59 µM,2.96 µM,2.13 µM,,2.9 µM,9.12 µM,1.66 µM,3.25 µM,1.36 µM,3.02 µM,2.89 µM,> 26.3 µM,2.6 µM,6.8 µM
O=C1CC2CCN(C(=O)c3ccccc3)CC2CCN1 (configuration not stated),,> 100 µM,,> 100 µM,,> 100 µM,,> 100 µM,,> 100 µM,,> 100 µM,,> 100 µM,,> 100 µM,,> 100 µM,,> 100 µM
C=C1C(O)C2C(=C(C)C13CC3)C(=O)C(C)(C)C2OC (configuration not stated),> 100 µM,> 100 µM,> 100 µM,> 100 µM,> 100 µM,> 100 µM,> 100 µM,> 100 µM,> 100 µM,> 100 µM,71.9 µM,> 100 µM,90.4 µM,> 100 µM,> 100 µM,> 100 µM,95.6 µM,> 100 µM,42.9 µM,> 100 µM
COc1cc(-c2nnc3n2NC=C(C(=O)O)S3)cc(OC)c1OC,,> 100 µM,,> 62 µM,,> 100 µM,,> 100 µM,,> 100 µM,,> 100 µM,,> 100 µM,,> 100 µM,,> 70.3 µM,,> 63 µM
Cc1c(Cl)cccc1NC(=O)c1cccc([N+](=O)[O-])c1O,,36.3 µM,,> 100 µM,,97.4 µM,,62.5 µM,,82 µM,,> 100 µM,,7.74 µM,,> 87.6 µM,,27.3 µM,,> 82.7 µM

# From PubChem BioAssay (NCI)
